The values that follow come from patent publication US8143408B2, “N-(8-heteroaryltetrahydronaphtalene-2yl) or N-(5-heteroarylchromane-3-yl) carboxamide derivatives for the treatment of pain” (AstraZeneca AB, priority 2007, dated 2012).

For this assay, the target named is T1, Nav1.7 voltage-gated sodium channel (Homo sapiens, UniProt Q15858).
T1 construct: Gene(s) encoding the full-length protein of the voltage-gated sodium channel of interest are cloned and expressed; expressed in transfected cells
The assay is described as follows: Whole-cell voltage clamp electrophysiology assay. The format is cell-based. The conditions noted are these: cells stably expressing the voltage-gated sodium channel of interest. A digest of the protocol: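 Cells expressing full-length channel, exposed to drug by integrated pipetting on automated patch-clamp platforms or by microperfusion in conventional whole-cell patch clamp. Channels activated by a voltage protocol depolarising from a defined holding potential; buffers per platform manufacturer.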

T1 sequence (Q15858 whole entry): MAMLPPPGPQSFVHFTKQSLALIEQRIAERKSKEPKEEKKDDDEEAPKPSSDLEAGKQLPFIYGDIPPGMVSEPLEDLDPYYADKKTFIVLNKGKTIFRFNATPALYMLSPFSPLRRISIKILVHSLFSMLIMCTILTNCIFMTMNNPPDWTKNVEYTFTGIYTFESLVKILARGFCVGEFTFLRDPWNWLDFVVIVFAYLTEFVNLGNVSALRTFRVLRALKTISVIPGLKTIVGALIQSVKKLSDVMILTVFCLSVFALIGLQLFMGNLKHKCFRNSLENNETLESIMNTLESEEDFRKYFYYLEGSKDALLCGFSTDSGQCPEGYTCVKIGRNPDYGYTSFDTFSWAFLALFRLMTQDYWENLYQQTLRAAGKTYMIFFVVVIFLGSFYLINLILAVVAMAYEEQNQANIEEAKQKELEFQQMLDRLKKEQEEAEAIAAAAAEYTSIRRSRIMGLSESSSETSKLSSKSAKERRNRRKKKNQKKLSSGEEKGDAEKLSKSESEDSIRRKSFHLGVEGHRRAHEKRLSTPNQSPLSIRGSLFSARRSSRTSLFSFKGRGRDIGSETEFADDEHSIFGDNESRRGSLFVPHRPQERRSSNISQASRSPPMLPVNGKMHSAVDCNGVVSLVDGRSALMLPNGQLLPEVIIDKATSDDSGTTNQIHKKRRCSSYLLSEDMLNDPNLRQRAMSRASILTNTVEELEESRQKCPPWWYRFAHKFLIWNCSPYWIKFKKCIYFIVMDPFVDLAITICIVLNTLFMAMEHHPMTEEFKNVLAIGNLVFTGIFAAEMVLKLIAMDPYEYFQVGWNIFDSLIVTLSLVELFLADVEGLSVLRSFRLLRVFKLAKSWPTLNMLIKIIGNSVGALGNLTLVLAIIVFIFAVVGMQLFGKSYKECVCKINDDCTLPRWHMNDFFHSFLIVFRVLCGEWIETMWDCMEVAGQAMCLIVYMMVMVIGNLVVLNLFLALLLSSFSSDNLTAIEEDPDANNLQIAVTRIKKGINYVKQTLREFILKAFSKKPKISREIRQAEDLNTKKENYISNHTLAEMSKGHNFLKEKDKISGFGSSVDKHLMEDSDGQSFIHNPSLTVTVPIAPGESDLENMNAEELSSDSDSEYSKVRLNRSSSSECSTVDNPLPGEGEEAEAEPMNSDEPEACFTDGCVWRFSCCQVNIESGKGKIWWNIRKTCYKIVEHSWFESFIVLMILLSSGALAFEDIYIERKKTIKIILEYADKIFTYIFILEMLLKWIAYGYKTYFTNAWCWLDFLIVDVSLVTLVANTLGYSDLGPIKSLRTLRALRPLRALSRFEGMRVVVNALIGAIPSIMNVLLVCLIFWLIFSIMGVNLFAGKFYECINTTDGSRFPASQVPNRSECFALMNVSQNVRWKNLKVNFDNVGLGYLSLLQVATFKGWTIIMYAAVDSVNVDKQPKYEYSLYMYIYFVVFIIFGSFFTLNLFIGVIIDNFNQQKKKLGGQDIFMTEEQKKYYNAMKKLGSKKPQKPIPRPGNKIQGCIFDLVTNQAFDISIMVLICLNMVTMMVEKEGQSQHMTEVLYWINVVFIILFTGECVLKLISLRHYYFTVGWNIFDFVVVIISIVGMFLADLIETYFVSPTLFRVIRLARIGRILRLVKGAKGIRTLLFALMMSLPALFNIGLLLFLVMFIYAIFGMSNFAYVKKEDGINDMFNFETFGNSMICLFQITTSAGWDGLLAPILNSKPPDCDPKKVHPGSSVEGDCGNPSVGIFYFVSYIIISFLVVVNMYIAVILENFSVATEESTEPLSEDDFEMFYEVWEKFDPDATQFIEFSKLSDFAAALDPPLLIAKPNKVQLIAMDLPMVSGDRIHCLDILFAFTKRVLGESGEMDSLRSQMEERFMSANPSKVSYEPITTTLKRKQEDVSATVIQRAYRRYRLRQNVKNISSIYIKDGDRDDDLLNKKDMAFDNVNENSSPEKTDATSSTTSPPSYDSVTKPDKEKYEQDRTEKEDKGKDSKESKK

The compound `O=C(N[C@@H]1COc2cccc(-c3cnc(C4CC4)nc3)c2C1)c1ccc(OCC(F)(F)F)nc1` [Example 109, N-[(3S)-5-(2-cyclopropylpyrimidin-5-yl)-3,4-dihydro-2H-chromen-3-yl]-6-(2,2,2-trifluoroethoxy)nicotinamide] had an IC50 of 126 nM.

With `CCCN(CCC)C(=O)c1ccc(C(=O)N[C@@H]2COc3cccc(-c4cnc(OC)nc4)c3C2)cn1` [Example 110, N^5-[(3S)-5-(2-methoxypyrimidin-5-yl)-3,4-dihydro-2H-chromen-3-yl]-N^2,N^2-dipropylpyridine-2,5-dicarboxamide], the half-maximal inhibitory concentration (IC50) was 2000 nM.

As for `COc1ncc(-c2cccc3c2C[C@H](NC(=O)c2ccc(C(=O)NCCC(C)C)nc2)CO3)cn1` [Example 111, N^5-[(3S)-5-(2-methoxypyrimidin-5-yl)-3,4-dihydro-2H-chromen-3-yl]-N^2-(3-methylbutyl)pyridine-2,5-dicarboxamide], the IC50 was 251 nM. Against the preceding compound, the IC50 is about 8-fold lower.

As for `COc1ncc(-c2cccc3c2C[C@H](NC(=O)c2ccc(C(=O)N(C)CC(C)C)nc2)CO3)cn1` [Example 112, N^2-isobutyl-N^5-[(3S)-5-(2-methoxypyrimidin-5-yl)-3,4-dihydro-2H-chromen-3-yl]-N^2-methylpyridine-2,5-dicarboxamide], the IC50 is 1580 nM.

The compound `O=C(N[C@@H]1COc2cccc(-c3ccncc3)c2C1)c1ccc(OCc2nccs2)nc1` [Example 114, N-[(3S)-5-pyridin-4-yl-3,4-dihydro-2H-chromen-3-yl]-6-(1,3-thiazol-2-ylmethoxy)nicotinamide] showed an IC50 of 1000 nM.

Compound `Cc1cc(COc2ccc(C(=O)N[C@@H]3COc4cccc(-c5ccncc5)c4C3)cn2)no1` [Example 115, 6-[(5-methylisoxazol-3-yl)methoxy]-N-[(3S)-5-pyridin-4-yl-3,4-dihydro-2H-chromen-3-yl]nicotinamide] gave an IC50 of 316 nM.

The compound `Cn1ccnc1COc1ccc(C(=O)N[C@@H]2COc3cccc(-c4ccncc4)c3C2)cn1` [Example 116, 6-[(1-methyl-1H-imidazol-2-yl)methoxy]-N-[(3S)-5-pyridin-4-yl-3,4-dihydro-2H-chromen-3-yl]nicotinamide] gave an IC50 of 2000 nM.

`O=C(N[C@@H]1COc2cccc(-c3ccncc3)c2C1)c1ccc(S(=O)(=O)C2CCCC2)nc1` [Example 117, 6-(cyclopentylsulfonyl)-N-[(3S)-5-pyridin-4-yl-3,4-dihydro-2H-chromen-3-yl]nicotinamide] had an IC50 of 501 nM.

With `O=C(N[C@@H]1COc2cccc(-c3ccncc3)c2C1)c1ccc(OCc2ccccn2)nc1` [Example 118, N-[(3S)-5-pyridin-4-yl-3,4-dihydro-2H-chromen-3-yl]-6-(pyridin-2-ylmethoxy)nicotinamide], the IC50 is 1580 nM.

In turn, `O=C(N[C@@H]1COc2cccc(-c3ccncc3)c2C1)c1ccc(OCc2cccnc2)nc1` [Example 119, N-[(3S)-5-pyridin-4-yl-3,4-dihydro-2H-chromen-3-yl]-6-(pyridin-3-ylmethoxy)nicotinamide] showed an IC50 of 2000 nM.

`O=C(N[C@@H]1COc2cccc(-c3ccncc3)c2C1)c1ccc(OCc2cnccn2)nc1` [Example 120, 6-(pyrazin-2-ylmethoxy)-N-[(3S)-5-pyridin-4-yl-3,4-dihydro-2H-chromen-3-yl]nicotinamide] had an IC50 of 1580 nM.

For the compound `COc1ncc(-c2cccc3c2C[C@H](NC(=O)c2ccc(OCC4CCCO4)nc2)CO3)cn1` (stereo partly drawn) [Example 121, N-[(3S)-5-(2-methoxypyrimidin-5-yl)-3,4-dihydro-2H-chromen-3-yl]-6-(tetrahydrofuran-2-ylmethoxy)nicotinamide], 5010 nM corresponded to half-maximal inhibition (IC50). This IC50 lies about 3.2-fold higher than the previous one.

`COc1ncc(-c2cccc3c2C[C@H](NC(=O)c2ccc(OCC4CCCCO4)nc2)CO3)cn1` (stereo partly drawn) [Example 122, N-[(3S)-5-(2-methoxypyrimidin-5-yl)-3,4-dihydro-2H-chromen-3-yl]-6-(tetrahydro-2H-pyran-2-ylmethoxy)nicotinamide] had an IC50 of 2000 nM.

In turn, `COc1ncc(-c2cccc3c2C[C@H](NC(=O)c2ccc(OCC4CCOCC4)nc2)CO3)cn1` [Example 123, N-[(3S)-5-(2-methoxypyrimidin-5-yl)-3,4-dihydro-2H-chromen-3-yl]-6-(tetrahydro-2H-pyran-4-ylmethoxy)nicotinamide] showed an IC50 of 1000 nM.

In the case of `CC#CCOc1ccc(C(=O)N[C@@H]2COc3cccc(-c4cnc(OC)nc4)c3C2)cn1` [Example 124, 6-(but-2-yn-1-yloxy)-N-[(3S)-5-(2-methoxypyrimidin-5-yl)-3,4-dihydro-2H-chromen-3-yl]nicotinamide], the IC50 was 158 nM.

Consider `COc1ncc(-c2cccc3c2C[C@H](NC(=O)c2ccc(C(=O)NCCC(F)(F)F)nc2)CO3)cn1` [Example 125, N^5-[(3S)-5-(2-methoxypyrimidin-5-yl)-3,4-dihydro-2H-chromen-3-yl]-N^2-(3,3,3-trifluoropropyl)pyridine-2,5-dicarboxamide], for which the IC50 was 316 nM. This IC50 lies about 2-fold higher than the previous one.

With `COCCOc1ccc(C(=O)N[C@@H]2COc3cccc(-c4ccncc4)c3C2)cn1` [Example 126, 6-(2-methoxyethoxy)-N-[(3S)-5-pyridin-4-yl-3,4-dihydro-2H-chromen-3-yl]nicotinamide], the IC50 was 2000 nM.

The compound `O=C(N[C@@H]1COc2cccc(-c3ccncc3)c2C1)c1ccc(OCC2CCO2)nc1` (stereo partly drawn) [Example 127, 6-(oxetan-2-ylmethoxy)-N-[(3S)-5-pyridin-4-yl-3,4-dihydro-2H-chromen-3-yl]nicotinamide] gave an IC50 of 3160 nM.

`CO[C@H](C)COc1ccc(C(=O)N[C@@H]2COc3cccc(-c4ccncc4)c3C2)cn1` [Example 128, 6-{[(2R)-2-methoxypropyl]oxy}-N-[(3S)-5-pyridin-4-yl-3,4-dihydro-2H-chromen-3-yl]nicotinamide] showed an IC50 of 1000 nM.

Take `O=C(N[C@@H]1COc2cccc(-c3ccncc3)c2C1)c1ccc(OC2CCOCC2)nc1` [Example 129, N-[(3S)-5-pyridin-4-yl-3,4-dihydro-2H-chromen-3-yl]-6-(tetrahydro-2H-pyran-4-yloxy)nicotinamide]: the IC50 is 200 nM.

The compound `O=C(N[C@@H]1COc2cccc(-c3ccncc3)c2C1)c1ccc(C(=O)NC2CCOCC2)nc1` [Example 130, N^5-[(3S)-5-pyridin-4-yl-3,4-dihydro-2H-chromen-3-yl]-N^2-(tetrahydro-2H-pyran-4-yl)pyridine-2,5-dicarboxamide] gave an IC50 of 3980 nM.

The compound `O=C(N[C@@H]1COc2cccc(-c3ccncc3)c2C1)c1ccc(C(=O)NCC(F)(F)F)nc1` [Example 131, N^5-[(3S)-5-pyridin-4-yl-3,4-dihydro-2H-chromen-3-yl]-N^2-(2,2,2-trifluoroethyl)pyridine-2,5-dicarboxamide] had an IC50 of 631 nM.

`O=C(N[C@@H]1COc2cccc(-c3cccnc3)c2C1)c1ccc(C(=O)NCCC(F)(F)F)nc1` [Example 132, N^5-[(3S)-5-pyridin-3-yl-3,4-dihydro-2H-chromen-3-yl]-N^2-(3,3,3-trifluoropropyl)pyridine-2,5-dicarboxamide] gave an IC50 of 79.4 nM.

The compound `O=C(N[C@@H]1COc2cccc(-c3cccnc3)c2C1)c1cnc(OC2CCOCC2)cn1` [Example 133, N-[(3S)-5-pyridin-3-yl-3,4-dihydro-2H-chromen-3-yl]-5-(tetrahydro-2H-pyran-4-yloxy)pyrazine-2-carboxamide] had a half-inhibitory concentration (IC50) of 794 nM.

In the case of `COc1ccc(-c2cccc3c2C[C@H](NC(=O)c2ccc(OC4CCOCC4)nc2)CO3)cn1` [Example 134, N-[(3S)-5-(6-methoxypyridin-3-yl)-3,4-dihydro-2H-chromen-3-yl]-6-(tetrahydro-2H-pyran-4-yloxy)nicotinamide], the IC50 is 316 nM.

The compound `COc1ccc(-c2cccc3c2C[C@H](NC(=O)c2ccc(OC4CCCOC4)nc2)CO3)cn1` (stereo partly drawn) [Example 135, N-[(3S)-5-(6-methoxypyridin-3-yl)-3,4-dihydro-2H-chromen-3-yl]-6-(tetrahydro-2H-pyran-3-yloxy)nicotinamide] showed an IC50 of 316 nM.

`O=C(N[C@@H]1COc2cccc(-c3ccncc3)c2C1)c1ccc(OC2CCCOC2)nc1` (stereo partly drawn) [Example 136, N-[(3S)-5-pyridin-4-yl-3,4-dihydro-2H-chromen-3-yl]-6-(tetrahydro-2H-pyran-3-yloxy)nicotinamide] had an IC50 of 316 nM.

The compound `COCCOc1ccc(C(=O)N[C@@H]2COc3cccc(-c4cccnc4)c3C2)cn1` [Example 137, 6-(2-methoxyethoxy)-N-[(3S)-5-pyridin-3-yl-3,4-dihydro-2H-chromen-3-yl]nicotinamide] had an IC50 of 794 nM.

In turn, `COCCn1nc(C)c(C(=O)N[C@@H]2COc3cccc(-c4cccnc4)c3C2)n1` [Example 138, 2-(2-methoxyethyl)-5-methyl-N-[(3S)-5-pyridin-3-yl-3,4-dihydro-2H-chromen-3-yl]-2H-1,2,3-triazole-4-carboxamide] gave an IC50 of 3160 nM.

Take `O=C(N[C@@H]1COc2cccc(-c3cccnc3)c2C1)c1ccc(OCC2CCO2)nc1` (stereo partly drawn) [Example 139, 6-(oxetan-2-ylmethoxy)-N-[(3S)-5-pyridin-3-yl-3,4-dihydro-2H-chromen-3-yl]nicotinamide]: inhibition was half-maximal at 1580 nM (IC50).

In turn, `COCCOc1ccc(C(=O)N[C@@H]2COc3cccc(-c4ccnc(OC)c4)c3C2)cn1` [Example 140, 6-(2-methoxyethoxy)-N-[(3S)-5-(2-methoxypyridin-4-yl)-3,4-dihydro-2H-chromen-3-yl]nicotinamide] showed an IC50 of 631 nM.

The compound `COCCOc1ccc(C(=O)N[C@@H]2COc3cccc(-c4cnc(C)nc4)c3C2)cn1` [Example 141, 6-(2-methoxyethoxy)-N-[(3S)-5-(2-methylpyrimidin-5-yl)-3,4-dihydro-2H-chromen-3-yl]nicotinamide] showed an IC50 of 3980 nM.

`COCCOc1ccc(C(=O)N[C@@H]2COc3cccc(-c4ccncc4C)c3C2)cn1` [Example 142, 6-(2-methoxyethoxy)-N-[(3S)-5-(3-methylpyridin-4-yl)-3,4-dihydro-2H-chromen-3-yl]nicotinamide]: 3160 nM corresponded to half-maximal inhibition (IC50).
